Measured values taken from PubChem BioAssay AID179 (DTP/NCI, 2004).
Several values for one entry are separate records, joined by “and”; a condition that tells them apart may be missing. Equal values may be shown once. Activity calls are given as the source filed them.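 The calls were made as follows: active = compounds giving half or more protection of infected cells from virus-caused growth loss, again on retest; inactive = the rest.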

System: CEM cells HIV-1 protection, formazan growth assay
Test: NCI AIDS Antiviral Assay
Details: for IC50: measured here: growth of uninfected CEM cells
Outline: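 Category rules: moderately active means at least 50% protection on retest, and confirmed active means 100% protection reproducibly. The underlying data came from a formazan growth assay in HIV-1-infected CEM cells.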

Compound | outcome | EC50 | IC50 [µM]
FC(F)(F)c1ccc(C2SCc3nc4ccccc4n32)cc1 (stereo unspecified) | inactive | – | –
Cc1ccc(-c2nnc(CCCCCCCCc3nnc(-c4ccc(C)cc4O)n3N)n2N)c(O)c1 | – | > 200 µM | 120
Cc1cc(Br)cc(C)c1NC(=O)C(=O)C1C(=O)C(CC2C(=O)c3ccccc3C2=O)C(=O)CC1(C)C (stereo unspecified) | – | > 18.2 µM | > 18.2
CCO[C@@H]1C2C=CC(C2)[C@H]1[N+](=O)[O-] (stereo partly specified) | – | > 141 µM | > 141
C/C(=N/N=C(\[O-])c1ccncc1)C(F)(F)F.C/C(=N\N=C(/[O-])c1ccncc1)C(F)(F)F.[Cu+2] | – | > 200 µM | 18.2
COc1cc(/C=C/C(=O)O)ccc1OS(=O)(=O)O | – | > 200 µM | > 200
COC(=O)C1=COC(C)C2C[n+]3ccc4c([nH]c5ccccc54)c3CC12 (stereo unspecified) | – | > 200 µM | > 200
CC(O)CSP(=S)(Oc1ccccc1)Oc1ccccc1 (stereo unspecified) | – | > 39.8 µM | > 39.8
O=C(COc1ccc(Br)cc1Br)N1N=C(c2ccc([N+](=O)[O-])o2)CC1(O)c1ccccc1 (stereo unspecified) | – | > 6.61 µM | > 6.61
OCCN1CCOC(O)(c2cccc(C(F)(F)F)c2)C1 (stereo unspecified) | – | > 200 µM | 115
CN(C)C(=N)OCc1ccccc1 | – | > 200 µM | > 200
Clc1ccc(N=c2ccc3ccccc3[oH+]2)cc1.Clc1ccc(N=c2ccc3ccccc3[oH+]2)cc1.[Co] | inactive | – | –
Cc1nc(C)c(N2CCN(CN)CC2)c(=O)[nH]1 | – | > 200 µM | > 200
CC(=O)N1C(c2[nH]c3ccccc3c2-c2ccccc2)CCN1c1ccccc1 (stereo unspecified) | – | > 200 µM | 74.1
Cc1c2c(n3c(nc4ccccc43)c1C#N)SCC2 | – | > 200 µM | > 200
C#[N+]CCOP(=O)(OCC1OC(n2cc(C)c(=O)[nH]c2=O)CC1N=[N+]=[N-])O[C@H]1CC[C@@]2(C)C(=CC[C@H]3[C@@H]4CC[C@H](C(C)/C=C/C(CC)C(C)C)[C@@]4(C)CC[C@@H]32)C1 (stereo partly specified) | – | 1.62 µM and 5.89 µM | > 200
CS(=O)(=O)Sc1ccc(Cl)cc1 | – | > 132 µM | 9.33
COC(=O)c1ccc(C)cc1C1CN=NC12Cc1cccc(C)c1C2=O (stereo unspecified) | – | > 200 µM | > 200
CN(C)CCNc1ccc2c(=O)n(CCN(C)C)c(=O)n3c4ccc(O)cc4c(=O)c1c23 | – | > 0.2 µM | 0.0107
CC(C)=CC(C(O)c1ccccc1)S(=O)(=O)c1nccn1C (stereo unspecified) | – | > 407 µM | > 407
Brc1ccc(N=NN2CCCCC2)cc1 | – | > 200 µM | 18.6
NS(=O)(=O)c1nnc(NS(=O)(=O)c2ccccc2C(=O)O)s1 | – | > 200 µM | > 200

Compound | outcome | EC50 | IC50 [µM]
O=S(O)CCCCCSSc1ccccc1 | inactive | – | –
NC(CCSCc1ccccc1)P(=O)(O)O (stereo unspecified) | – | > 200 µM | > 200
O=C(O)/C=C\C(=O)c1ccc(Cl)cc1 | – | > 324 µM | 58.9
C1CSCCSCCCSC2CCCCC2SC1 (stereo unspecified) | – | > 22.4 µM | > 22.4
CN1C(=O)c2ccccc2N=CN1C(=O)Nc1ccccc1 | – | > 123 µM | > 123
O=C(O)CNS(=O)(=O)c1ccc(NC(=O)c2ccc([N+](=O)[O-])cc2)cc1 | inactive | – | –
CCCCOB(OCCCC)OCCCC | – | > 200 µM | > 200
CCOC(=O)N1CCC2(CC1)C[C@@](C(C)=O)(c1ccccc1)C(C)O2 (stereo partly specified) | – | > 200 µM | > 200
NNC1=Nc2ccccc2N=C2CCSCC21 (stereo unspecified) | – | > 200 µM | 178
CC(CC[C@@H](O)C(C)(C)O)C1[C@@H](O)CC2(C)C3CC(O)C4C(C)(C)[C@@H](OC5OC(CO)C(O)C(O)C5O)CC[C@@]45C[C@@]35CC[C@]12C (stereo partly specified) | – | > 200 µM | > 200
O=c1[nH]c(=O)n(C2CC(O)C(CO)O2)cc1C#Cc1cc(C(F)(F)F)cc(C(F)(F)F)c1 (stereo unspecified) | – | > 40.7 µM | > 40.7
CCOc1cc2c(cc1O)/C(=N\O)C[C@@H]1[C@@H]2CC[C@]2(C)[C@@H](O)CC[C@@H]12 | – | > 200 µM | 0.0631
O=C1c2ccccc2-c2nc3ncccc3cc21 | – | > 200 µM | 33.9
OC(CC(CC(O)(C(F)(F)Cl)C(F)(F)Cl)=NNc1ccccc1)(C(F)(F)Cl)C(F)(F)Cl | – | > 200 µM | 2.14
CC12CCC(CC1(Cl)Cl)C2 (stereo unspecified) | – | > 200 µM | > 200
O=C1NS(=O)(=O)C2C(Cl)=C(Cl)C3(Cl)C2C13Cl (stereo unspecified) | – | > 776 µM | > 776
Cc1cc(C)c(-c2noc(-c3ccc(Cl)cc3)c2C2=NCCCN2)c(C)c1 | – | > 35.5 µM | 24.5
Clc1ccc2c(c1)nnn1nccc21 | – | > 35.5 µM | > 35.5
CCOC(=O)c1cc(OC(C)=O)c2ccccc2c1 | – | > 100 µM | 95.5
NC(=S)N1N=C2c3ccccc3CC[C@@H]2[C@@H]1c1ccccc1 | – | > 34.7 µM | 6.03
CCC[CH2][Sn]([CH2]CCC)([O]C(=O)/C=C/c1ccccc1F)[O]C(=O)/C=C/c1ccccc1F | – | > 9.33 µM | > 9.33
CCCNC(=O)c1nc(SC)sc1NC(=O)c1ccccc1 | – | > 200 µM | > 200

Compound | outcome | EC50 | IC50 [µM]
COc1ccc2nc3c([N+](=O)[O-])ccc4c3c(c2c1)NCCN4C | – | > 100 µM | 0.513
CN(N=O)C(=O)ON1C(=O)CCC1=O | – | > 1230 µM | 107
CC1=CCC[C@@]2(C)C(CC[C@@H]2C(C)/C=C/C(C)C)c2ccc(cc2C(=O)O)C[C@@H](O)CC1 (stereo partly specified) | inactive | – | –
CC1=C(C(=O)Nc2ccccc2C)C(c2ccc(Cl)cc2)C(C(=O)Nc2ccccc2C)=C(C)N1 | – | > 2.95 µM | > 2.95
CCC(COC(/C=C1/C=CC(=O)O1)COC(=O)c1ccccc1)c1ccccc1 (stereo unspecified) | – | > 115 µM | 77.6
CCOC(=O)c1nnsc1N/N=C\c1ccc([N+](=O)[O-])cc1 | – | > 200 µM | > 200
COc1ccccc1NC(=S)NNC(=O)c1cc(-c2ccccc2)nc2ccccc12 | – | > 200 µM | 11.5
O=c1[nH]ncc2c1ncn2C1CCC(CO)O1 (stereo unspecified) | – | 195 µM | > 200
CC1OC(OC2C(Oc3cc(O)c4c(c3)O[C@H](c3ccc(O)cc3)CC4=O)OC(CO)C(O)C2O)C(O)C(O)C1O (stereo partly specified) | – | > 200 µM | > 200
Cc1ccc(S(=O)(=O)n2cc(C#N)c(C#N)c2)cc1 | – | > 200 µM | 57.5
COC(=O)C1=COC(C)C2CN3CCC4(C(=O)Nc5ccccc54)C3CC12 (stereo unspecified) | inactive | – | –
Cc1cccc(C)c1Nc1nc(C)c(C(=O)CC(=O)C(=O)Nc2c(C(C)C)cccc2C(C)C)s1 | – | > 200 µM | > 200
COc1cc(-c2cc(=O)c3c(OC)c(OC)c(OC)c(OC)c3o2)cc(OC)c1OC | – | > 200 µM | 28.2
Cc1cn([C@@H]2C[C@@H]2CO)c(=O)[nH]c1=O | inactive | – | –
O=C1CCC2(c3ccc(F)cc3)Nc3ccc(Cl)cc3N12 (stereo unspecified) | – | > 61.7 µM | 45.7
O=C(NNC(=O)c1ccco1)c1ccco1 | – | > 200 µM | > 200
O=C1C=C(Nc2ccc(Cl)cc2C(=O)c2ccccc2)c2ccccc2C1=O | – | > 174 µM | > 174
COc1cc(C(Cc2ccccc2)NC(C)=O)oc(=O)c1 (stereo unspecified) | – | > 871 µM | 155
CC(C)(C)[Si](C)(C)OC1C(=O)C(CO)OC1n1ccc(=O)[nH]c1=O (stereo unspecified) | – | > 200 µM | > 200
CCC1=CCN(c2ccccn2)OC1c1ccc(OC)cc1 (stereo unspecified) | – | > 63.1 µM | 60.3
